Values after ≈ are worked out from the molar mass of the structure shown.
Key:
[1] = Solubility of the compound; format: physicochemical
[2] = Lipophilicity, logP of the compound; format: physicochemical; settings: octanol/water

solubility [1]: 123 µg/mL (≈ 264 µM) | logP [2]: 0.88
SMILES: CCOC(=O)OC(C)OC(=O)[C@@H]1N2C(=O)[C@@H](NC(=O)[C@H](N)c3ccccc3)[C@H]2SC1(C)C (some centres not stated) [BACAMPICILLIN]
